Measurements published in patent US20240383908A1, “SYNTHESIS AND APPLICATION OF PHOSPHATASE DEGRADER” (HINOVA PHARMACEUTICALS INC., priority 2021, published 2024).

Biological target: T1, SHP2 protein (Homo sapiens, UniProt Q06124)
T1 sequence (Q06124 1-593): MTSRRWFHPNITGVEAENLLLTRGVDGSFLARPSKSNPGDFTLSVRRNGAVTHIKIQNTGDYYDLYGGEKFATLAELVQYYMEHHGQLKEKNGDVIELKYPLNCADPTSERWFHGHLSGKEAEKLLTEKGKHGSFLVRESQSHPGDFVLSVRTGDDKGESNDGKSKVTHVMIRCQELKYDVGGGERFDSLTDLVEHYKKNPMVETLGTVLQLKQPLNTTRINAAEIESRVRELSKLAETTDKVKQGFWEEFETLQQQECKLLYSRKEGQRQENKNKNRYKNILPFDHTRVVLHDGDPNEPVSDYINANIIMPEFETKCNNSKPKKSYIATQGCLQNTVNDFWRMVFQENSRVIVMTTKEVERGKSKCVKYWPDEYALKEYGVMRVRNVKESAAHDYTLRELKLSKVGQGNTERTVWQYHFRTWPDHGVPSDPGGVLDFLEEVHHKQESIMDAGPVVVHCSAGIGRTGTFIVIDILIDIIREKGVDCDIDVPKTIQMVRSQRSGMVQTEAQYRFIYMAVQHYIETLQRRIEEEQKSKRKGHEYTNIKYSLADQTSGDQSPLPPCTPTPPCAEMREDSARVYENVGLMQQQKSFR
Assay: Degradation activity on SHP2 protein in MV-411 cells (Western blot, DC50)
Format: cell-based
Design: endogenous in cells
Settings: MV411 cells, 24 hours, read-out: Degradation activity for differenct cell lines MV411 (DC50)
Description: • MV-411 cell line (COBIER, CBP-60522) • FBS (GEMINI, Cat. No. 900-108) • 0.01M PBS (Biosharp, Cat. No. 162262) • IMDM (Hyclone, Cat. No. SH30228.01) • Penicillin-Streptomycin (Gibco, Cat. No. 15140122) • DMSO (Sigma, Cat. No. D5879) • Centrifuge Tube, 15 ml (Excell Bio, Cat. No. CS015-0001) • Cell Culture Dish, (WHB, Cat. No. CS016-0128) • 12-well cell culture cluster (Corning, Cat. No. 3513) • RIPA lysate buffer (Thermo, Cat. No. 89900) • Protein Loding Buffer (Beyotime, Cat. No. P0015L) • BCA Protein Assay Kit (EpiZyme, Cat. No. ZJ102) • SDS-PAGE Fast Preparation Kit (EpiZyme, Cat. No. PG112) • Anti-GAPDH (14C10) Rabbit mAb (CST, Cat. No. 2118L) • Anti-SHP2 rabbit mAb (CST, Cat. No. 37525) • Peroxidase Affinipure (HRP) Goat Anti-Rabbit IgG (Zen Bioscience, Cat. No. 511203) • TBST (Biosharp, Cat. No. BL601A) • ECL chemiluminescence kit (4A Biotech, Cat. No. 4AW011-200)
• (1) Cell culture medium: IMIDM medium+10% FBS+1% Pen Strep; • (2) PBS buffer: PBS powder was dissolved in 2 L of ultrapure water and sterilized; • (3) Cell lysate: RIPA lysate buffer is added with protease inhibitors at a ratio of 1:1000 before use.
(1) MV-411 cells were cultured in the cell culture medium, and then well-growing cells were selected and inoculated in a 12-well plate, with 1 mL/well and 1×10^6 cells/well. The plate was incubated overnight in a 5% CO2 cell incubator at 37° C.
(2) 10 mM storage solution of each drug was prepared using dimethylsulfoxide (DMSO). The stock solution was diluted gradually with DMSO before use, and then 1 μL of the compound solution was added to the cell culture well (to ensure that the DMSO concentration in the culture system was […]), so that the final drug concentration is 100 nM, 10 nM, 3 nM, 1 nM, 0.3 nM, and 0.1 nM. Two wells were set for each concentration. The plate was gently shaken and mixed. Additionally, negative control wells (containing an equal amount of DMSO) and positive control wells were included.
(3) After 24 hours of cultivation, the cells were lysed using RIPA cell lysate, and the proteins were extracted. The protein concentration was measured using a BCA assay kit. 5× concentrated protein buffer was loaded, heated at 100° C. for 5 min, and then the sample was stored at −20° C.
(4) For each well, 30 μg of protein was loaded to polyacrylamide gel for electrophoresis.
(5) The protein was transferred from polyacrylamide gel to PVDF membrane, and sealed at room temperature with 5% skimmed milk for 1 h, which was then incubated with the primary antibodies (Anti-SHP2 rabbit mAb and Anti-GAPDH rabbit mAb) at 4° C. overnight. The membrane was washed three times with TBST solution, 10 minutes for each time. After that, the membrane was incubated with the secondary antibodies (horseradish peroxidase labeled goat anti-rabbit IgG) at room temperature for 2 h, and then washed three times with TBST solution, 10 minutes for each time, followed by exposure.
(6) The images were analyzed with Image J grayscale, and the degradation ratio of protein bands in the test group was calculated, based on the negative control group (DMSO) (100%).
(7) Using the Dose-response-inhibition equation in the data processing software GraphPad Prism 8, the DC50 value was obtained (which represents the drug concentration corresponding to 50% degradation of the target protein).
Finally, ECL detection solution was added for color development, and photos were taken with an automatic chemiluminescence instrument, so as to collect images and analyze them.

| DC50 | SMILES |
| --- | --- |
| > 1000 nM | CC1(CN)CCN(c2cnc(Sc3ccc(NC(=O)COCCOCCOCCOCC(=O)Nc4ccc5c(c4)C(=O)N(C4CCC(=O)NC4=O)C5)cc3Cl)cn2)CC1 (centres unmarked) [Compound 11] |
| < 100 nM | Cc1ncsc1-c1ccc([C@H](C)NC(=O)[C@@H]2C[C@@H](O)CN2C(=O)[C@@H](NC(=O)CCCCCCCCN2CCN(C(=O)[C@H]3CCC[C@@H]3C(=O)Nc3cccc(Sc4cnc(N5CCC(C)(N)CC5)cn4)c3)CC2)C(C)(C)C)cc1 [Compound 28] |
| < 100 nM | CC1(N)CCN(c2cnc(Sc3cccc(NC(=O)CCCCCCCOC4CCN(c5ccc(C(=O)NCc6ccc7c(c6)CN(C6CCC(=O)NC6=O)C7=O)nn5)CC4(F)F)c3)cn2)CC1 (centres unmarked) [Compound 153] |
| < 100 nM | CN(Cc1ccc2c(c1)CN(C1CCC(=O)NC1=O)C2=O)C(=O)c1ccc(N2CCC3(CN(CCCCCCC(=O)Nc4cccc(Sc5cnc(N6CCC(C)(N)CC6)cn5)c4)C3)C2)nn1 (centres unmarked) [Compound 152] |
| > 1000 nM | CC1(N)CCN(c2cnc(Sc3cccc(NC(=O)[C@H]4CCC[C@@H]4C(=O)N4CCN(CCCCCCCCC(=O)Nc5ccc6c(c5)C(=O)N(C5CCC(=O)NC5=O)C6)CC4)c3)cn2)CC1 (some centres unmarked) [Compound 24] |
| 100 to 1000 nM | CC1(N)CCN(c2cnc(Sc3cccc(NC(=O)COCCOCCOCCOCC(=O)NCc4ccc5c(c4)CN(C4CCC(=O)NC4=O)C5=O)c3)cn2)CC1 (centres unmarked) [Compound 3] |
| < 100 nM | CN(Cc1ccc2c(c1)CN(C1CCC(=O)NC1=O)C2=O)C(=O)c1ccc(N2CCC3(CN(CCCCCC(=O)Nc4cccc(Sc5cnc(N6CCC(C)(N)CC6)cn5)c4)C3)C2)nn1 (centres unmarked) [Compound 165] |
| < 100 nM | CC1(N)CCN(c2cnc(Sc3cccc(NC(=O)CCCCN4CC5(CCN(c6ccc(C(=O)NCc7ccc8c(c7)CN(C7CCC(=O)NC7=O)C8=O)nn6)C5)C4)c3)cn2)CC1 (centres unmarked) [Compound 145] |
| 100 to 1000 nM | Cc1ncsc1-c1ccc([C@H](C)NC(=O)[C@@H]2C[C@@H](O)CN2C(=O)[C@@H](NC(=O)COCCOCCOCCOCC(=O)Nc2ccc(Sc3cnc(N4CCC(C)(CN)CC4)cn3)c(Cl)c2)C(C)(C)C)cc1 [Compound 7] |
| < 100 nM | Cc1ncsc1-c1ccc([C@H](C)NC(=O)[C@@H]2C[C@@H](O)CN2C(=O)[C@@H](NC(=O)c2cnc(N3CCC4(CN(CCCCC(=O)Nc5cccc(Sc6cnc(N7CCC(C)(N)CC7)cn6)c5)C4)C3)nc2)C(C)(C)C)cc1 [Compound 88] |
| > 1000 nM | CC1(N)CCN(c2cnc(Sc3cccc(NC(=O)CCCCCCCCC(=O)NCc4ccc5c(c4)CN(C4CCC(=O)NC4=O)C5=O)c3)cn2)CC1 (centres unmarked) [Compound 53] |
| > 1000 nM | CC1(N)CCN(c2cnc(Sc3cccc(NC(=O)/C=C/C(=O)N4CC5(CCN(CCCCCCC(=O)NCc6ccc7c(c6)CN(C6CCC(=O)NC6=O)C7=O)C5)C4)c3)cn2)CC1 (centres unmarked) [Compound 150] |
| < 100 nM | Cc1ncsc1-c1ccc([C@H](C)NC(=O)[C@@H]2C[C@@H](O)CN2C(=O)[C@@H](NC(=O)c2cnc(N3CC[C@@H](OCCCCCCCC(=O)Nc4cccc(Sc5cnc(N6CCC(C)(N)CC6)cn5)c4)C3)nc2)C(C)(C)C)cc1 [Compound 103] |
| > 1000 nM | CC1(N)CCN(c2cnc(Sc3cccc(NC(=O)CCC(=O)NCCOCCOCC(=O)Nc4cccc5c4CN(C4CCC(=O)NC4=O)C5=O)c3)cn2)CC1 (centres unmarked) [Compound 29] |
| > 1000 nM | CC1(N)CCN(c2cnc(Sc3cccc(NC(=O)COCCOCCOCCOCC(=O)Nc4cccc5c4CN(C4CCC(=O)NC4=O)C5=O)c3)cn2)CC1 (centres unmarked) [Compound 17] |
| < 100 nM | Cc1ncsc1-c1ccc([C@H](C)NC(=O)[C@@H]2C[C@@H](O)CN2C(=O)[C@@H](NC(=O)c2ccc(N3CCC4(CN(CCCCCOCC(=O)Nc5cccc(Sc6cnc(N7CCC8(CC7)CO[C@@H](C)[C@H]8N)cn6)c5)C4)C3)nn2)C(C)(C)C)cc1 [Compound 120] |
| 100 to 1000 nM | Cc1ncsc1-c1ccc([C@H](C)NC(=O)[C@@H]2C[C@@H](O)CN2C(=O)[C@@H](NC(=O)[C@@H]2C[C@H]2C(=O)N2CCC3(CN(CCCCCCC(=O)Nc4cccc(Sc5cnc(N6CCC(C)(N)CC6)cn5)c4)C3)C2)C(C)(C)C)cc1 [Compound 126] |
| < 100 nM | CC1(CN)CCN(c2cnc(Sc3cccc(NC(=O)CCC(=O)N4CCN(CCCCCCCCC(=O)Nc5ccc6c(c5)C(=O)N(C5CCC(=O)NC5=O)C6)CC4)c3Cl)cn2)CC1 (centres unmarked) [Compound 16] |
| > 1000 nM | CC1(N)CCN(c2cnc(Sc3cccc(NC(=O)CCCN4CCN(c5ncc(C(=O)NCc6ccc7c(c6)CN(C6CCC(=O)NC6=O)C7=O)cn5)CC4)c3)cn2)CC1 (centres unmarked) [Compound 83] |
| < 100 nM | Cc1ncsc1-c1ccc([C@H](C)NC(=O)[C@@H]2C[C@@H](O)CN2C(=O)[C@@H](NC(=O)c2ccc(N3CCC4(CN(CCCCCOCC(=O)Nc5ccc(Sc6cnc(N7CCC(N)(CF)CC7)cn6)cc5)C4)C3)nn2)C(C)(C)C)cc1 [Compound 122] |
| < 100 nM | CC1(N)CCN(c2cnc(Sc3cccc(NC(=O)CCCCCCCCN4C5CCC4CN(c4ccc(CN6CCN(c7ccc8c(c7)C(=O)N(C7CCC(=O)NC7=O)C8=O)CC6)nn4)C5)c3)cn2)CC1 (centres unmarked) [Compound 149] |
| < 100 nM | CC1(N)CCN(c2cnc(Sc3cccc(NC(=O)CCCCCCCCN4C5CCC4CN(c4ccc(C(=O)N6CCN(c7ccc8c(c7)C(=O)N(C7CCC(=O)NC7=O)C8=O)CC6)nn4)C5)c3)cn2)CC1 (centres unmarked) [Compound 148] |
| < 100 nM | CC1(N)CCN(c2cnc(Sc3cccc(NC(=O)CCCCCCCN4CC5(CCN(c6ccc(C(=O)NCc7ccc8c(c7)CN(C7CCC(=O)NC7=O)C8=O)nn6)C5)C4)c3)cn2)CC1 (centres unmarked) [Compound 106] |
| > 1000 nM | C[C@@H]1OCC2(CCN(c3cnc(Sc4cccc(NC(=O)CCCCCCCN5CC6(CCN(Cc7ccc(COc8cccc9c8CN(C8CCC(=O)NC8=O)C9=O)cc7)C6)C5)c4)cn3)CC2)[C@@H]1N (some centres unmarked) [Compound 113] |
| 100 to 1000 nM | Cc1ncsc1-c1ccc([C@H](C)NC(=O)[C@@H]2C[C@@H](O)CN2C(=O)[C@@H](NC(=O)CCCCCCCCCCCC(=O)Nc2cccc(Sc3cnc(N4CCC(C)(N)CC4)cn3)c2)C(C)(C)C)cc1 [Compound 58] |
| > 1000 nM | NCC1(O)C2CCC1CN(c1cnc(Sc3cccc(NC(=O)CCCCCCN4CC5(CCN(c6ccc(C(=O)NCc7ccc8c(c7)CN(C7CCC(=O)NC7=O)C8=O)nn6)C5)C4)c3)cn1)C2 (centres unmarked) [Compound 204] |
| < 100 nM | Cc1cc(C(=O)NCc2ccc3c(c2)CN(C2CCC(=O)NC2=O)C3=O)n(C2CCN(CCCCCCCCC(=O)Nc3cccc(Sc4cnc(N5CCC(C)(N)CC5)cn4)c3)CC2)n1 (centres unmarked) [Compound 80] |
| < 100 nM | Cc1ncsc1-c1ccc([C@H](C)NC(=O)[C@@H]2C[C@@H](O)CN2C(=O)[C@@H](NC(=O)CCCCCCCCCCC(=O)Nc2cccc(Sc3cnc(N4CCC(C)(N)CC4)cn3)c2)C(C)(C)C)cc1 [Compound 49] |
| < 100 nM | CN(Cc1ccc2c(c1)CN(C1CCC(=O)NC1=O)C2=O)C(=O)c1cnc(N2CCC3(CN(CCCCCCC(=O)Nc4cccc(Sc5cnc(N6CCC(C)(N)CC6)cn5)c4)C3)C2)cn1 (centres unmarked) [Compound 180] |
